Tested on: Store-bought Strawberries
Experiment: Strawberry shelf-life / spoilage test after ascaroside treatment
Conditions: berries dipped into 100 nM water solution
Method: Example 1: treatment of fruit with ascarosides extends shelf-life/delays spoilage. Store-bought Strawberries were treated with ascaroside (ascr #18) by dipping the berries into a 100 nM water solution of the ascaroside or a mock solution lacking ascaroside. Five berries from each treatment group were placed in glass dishes and left uncovered on a table indoors at ambient temperature and monitored for one week. Fruit weight was measured at 0, 1, 3, 4, 5, 6, and 7 days post-treatment. The ascaroside treated berries retained approximately 25% more of their original mass than the untreated group indicating a reduced spoilage rate and potential for increased shelf life. […] Example 2: treatment of fruit with coating compositions containing ascarosides. Freshly harvested, non-coated, apples were obtained from a supermarket. These were washed and experimental coatings were applied.

## CC1OC(O[C@H](C)CCCCCCCCC(=O)O)C(O)CC1O (some centres unmarked) [ascr #18]
Photographs 0, 3 and 5 days post-treatment, vs untreated fruit
  fruit quality by appearance (photographs, FIG. 1b): maintained higher quality than the untreated fruit
Uncovered at ambient temperature, monitored for seven days, vs mock solution
  original mass retained, more than the untreated group (normalized fruit mass, FIG. 1a): approximately 25%
